# Experimental data taken from article PMC12691635 (Antimicrobial Agents and Chemotherapy, 2025).
# Assays:
# [1] = cited from earlier work
# Procedure: Our observations were best described by a one-compartment model, which is in accordance with the sparse data gathered from routine clinical practice ([40]). […] A potential explanation is that the studies that report higher CL were performed ...
# [2] = single 1,000 mg dose, 2 weeks post-administration, non-infected patients undergoing elective orthopedic surgery; cited from earlier work
# Source text: Assessment of optimal antibiotic exposure at the site of the infection is challenging, especially for deep-seated infections, such as bone and joint, and often unbound plasma exposure is used as a worst-case scenario surrogate for target site exposure assuming that only the free (unbound) concentration can distribute to peripheral tissues ([37]). However, drug PK in the peripheral tissues depends not only on protein binding but also on other characteristics, such as drug’s molecular weight and physiochemistry, varying broadly across antibiotic classes ([38]). For dalbavancin, Dunne et al. perf ...
# [3] = tested on: chronic prosthetic joint infections caused by Gram-positive bacteria; test: Microbiological and clinical cure after two-stage exchange with a single 1,500 mg dose; type: in vivo, human
# clinical = settings: human, in vivo, iv, 1500 mg
# Procedure: Blood samples obtained during the follow-up visits were processed immediately after extraction, centrifuged at 3,000 g for 10 min and frozen at −80°C until bioanalysis.
# [4] = Population pharmacokinetic analysis (Monolix); type: in vivo, human
# Procedure: The non-linear mixed-effect modeling software Monolix 2024R1 (Lixoft SAS, a Simulations Plus company) implementing the stochastic approximation expectation maximization algorithm was used for model development ([18]).
# One- and multicompartment models with first-order elimination were tested. All individual parameters were assumed to be log-normally distributed. Inter-individual variability (IIV) was described using an exponential model. To describe residual variability, several error models (constant, proportional, or combined error model) were tested. The most appropriate structural model was selected based on the following criteria: Akaike information criterion, corrected Bayesian information criterion, usual goodness-of-fit plots, and relative standard errors. […] Model internal validation was based on goodness-of-fit plots, including observations versus individual (IPRED) and population predictions (PRED) and plots of normalized prediction distribution error (NPDE) versus PRED and time. A prediction-corrected visual predictive check (pc-VPC) was performed using 500 simulations with the final model ([21]), and non-parametric bootstrapping (n = 1,000) was used for assessing stability and robustness of the final model using Monolix 2024R1.
# [5] = Adverse events attributable to dalbavancin during follow-up; type: in vivo, human; settings: single 1,500 mg i.v. dose, over administration and during follow-up, including changes in renal function; 20 patients
# [6] = non-parametric bootstrap n = 1,000
# [7] = one-compartment model, total concentrations, 18 patients with CPJI, single 1,500 mg i.v.
structure (smiles),measurement,setting,value
CN[C@H]1C(=O)N[C@@H]2Cc3ccc(cc3)Oc3cc4cc(c3O[C@@H]3O[C@H](C(=O)O)[C@@H](O)[C@H](O)[C@H]3NC(=O)CCCCCCCCC(C)C)Oc3ccc(cc3Cl)[C@@H](O)[C@@H]3NC(=O)[C@H](NC(=O)[C@@H]4NC(=O)[C@@H](NC2=O)c2cc(cc(O)c2Cl)Oc2cc1ccc2O)c1ccc(O)c(c1)-c1c(O[C@H]2O[C@H](CO)[C@@H](O)[C@H](O)[C@@H]2O)cc(O)cc1[C@@H](C(=O)NCCCN(C)C)NC3=O [dalbavancin],CL reported in healthy volunteers and patients with acute infections,[1],0.050 L/h
same,Measured amount in homogenized cortical bone,[2],4.1 µg/g
same,Clinical failures or relapses,[3]; median follow-up of 693 days (IQI 630–824) after the second-stage procedure,no clinical failures or relapses
same,Second-stage surgery isolates,"[3]; patient 2, hip, first-stage S. lugdunensis, after Daptomycin (4)-Cefazolin (7) days",No growth
same,Second-stage surgery isolates,"[3]; patient 3, hip, first-stage E. faecalis, after Daptomycin (4)-Ampicillin (7) days",No growth
same,Second-stage surgery isolates,"[3]; patient 4, hip, first-stage S. hominis, after Vancomycin (6)-Linezolid (9) days",No growth
same,Second-stage surgery isolates,"[3]; patient 5, hip, first-stage S. epidermidis, after Daptomycin (10) days",No growth
same,Second-stage surgery isolates,"[3]; patient 6, hip, first-stage S. epidermidis, after Vancomycin (13)-Daptomycin (3) days",No growth
same,Second-stage surgery isolates,"[3]; patient 7, shoulder, first-stage S. epidermidis, after Vancomycin (3)-Daptomycin (5) days",No growth
same,Second-stage surgery isolates,"[3]; patient 8, knee, first-stage C. acnes, after Vancomycin (8) days",No growth
same,Second-stage surgery isolates,"[3]; patient 9, hip, first-stage S. epidermidis, after Vancomycin (20) days",No growth
same,Second-stage surgery isolates,"[3]; patient 10, hip, first-stage S. epidermidis, C. acnes, after Vancomycin (3)-Daptomycin (9) days",No growth
same,Second-stage surgery isolates,"[3]; patient 11, knee, first-stage S. epidermidis, after Vancomycin (7) days",No growth
same,Second-stage surgery isolates,"[3]; patient 12, knee, first-stage C. acnes, after Vancomycin (3)-Linezolid (5) days",No growth
same,Second-stage surgery isolates,"[3]; patient 13, knee, first-stage S. epidermidis, after Vancomycin (10) days",No growth
same,Second-stage surgery isolates,"[3]; patient 14, knee, first-stage S. epidermidis, after Vancomycin (7)-Linezolid (5) days",No growth
same,Second-stage surgery isolates,"[3]; patient 15, hip, first-stage S. capitis, C. acnes, after Vancomycin (7)-Daptomycin (10) days",No growth
same,Second-stage surgery isolates,"[3]; patient 16, knee, first-stage S. capitis, S. pettenkoferi, after Vancomycin (5)-Daptomycin (7) days",No growth
same,Second-stage surgery isolates,"[3]; patient 17, shoulder, first-stage C. acnes, after Vancomycin (10) days",S. epidermidis S. hominis
same,Second-stage surgery isolates,"[3]; patient 18, hip, first-stage S. epidermidis, after Vancomycin (10)-Linezolid (13) days",No growth
same,Second-stage surgery isolates,"[3]; patient 19, hip, first-stage S. epidermidis, C. acnes, after Vancomycin (4)-Tedizolid (14) days",No growth
same,Second-stage surgery isolates,"[3]; patient 20, hip, first-stage S. epidermidis, after Daptomycin (12) days",No growth
same,Microbiological cure rate,"[3]; single 1,500 mg i.v. dose after median 11.5 days systemic antibiotics, vancomycin-gentamicin spacer, negative intraoperative cultures at second-stage surgery",94.7%
same,level at 336 h,clinical,58500 ng/mL
same,level at 504 h,clinical,29700 ng/mL
same,level at 672 h,clinical,13300 ng/mL
same,"CL, clearance, bootstrap median (95% CI)",[4]; [6],0.037 (0.031–0.043) L/h
same,"V, volume of distribution, bootstrap median (95% CI)",[4]; [6],18.0 (16.0–20.3) L
same,"CL, clearance, estimate (% RSE)",[4]; [7],0.036 (8.2 %) [12.6%] L/h
same,"V, volume of distribution, estimate (% RSE)",[4]; [7],17.9 (6.2 %) [18.1%] L
same,Adverse events,[5],No adverse events were reported
